The results in this text go back to patent US20100324282A1, “METHOD FOR SEPARATING HETEROPOLYACID” (TOYOTA JIDOSHA KABUSHIKI KAISHA, priority 2009, published 2010).

Assay type in all cases: physicochemical
The nature of data set [1]: Heating reaction test with phosphotungstic acid triacontahydrate: distribution of phosphotungstic acid. Particulars: phosphotungstic acid triacontahydrate 30 g + glucose 5 g, heated. As to the method: (§1) Phosphotungstic acid triacontahydrate (30 g) was mixed with glucose (5 g), the resultant was heated, and various types of the selected organic solvents were added in amounts 3 times greater than the minimal amount of the solvent necessary to dissolve phosphotungstic acid (by volume). The resultant was stirred and allowed to stand, followed by phase separation. The samples were dried using a centrifuge, the phosphotungstic acid content in the dried specimens was analyzed by the ICP mass spectrometer, and glucose content was assayed via liquid chromatography.

Data set [2] in a line: Assay of solubility of glucose in organic solvent. Particulars: in the listed organic solvent, room temperature. As to the method: Glucose was added to an organic solvent at room temperature. Glucose was continuously added until it was not able to dissolve therein, and solubility was determined based on the entire amount of glucose added.
Data set [3] can be described thus: Heating reaction test with saturated aqueous solution of phosphotungstic acid: distribution of glucose. As to conditions: saturated aqueous solution of phosphotungstic acid triacontahydrate 30 g + glucose 5 g, heated. As to the method: (§2) A saturated aqueous solution containing 30 g of phosphotungstic acid triacontahydrate was mixed with 5 g of glucose, the mixture was heated, and various types of the selected organic solvents were then added thereto in amounts 3 times greater than the minimal amount of the solvent necessary to dissolve phosphotungstic acid (by volume). The resultant was stirred and allowed to stand, followed by phase separation. Samples were dried using a centrifuge, the phosphotungstic acid content in the dried specimens was analyzed by the ICP mass spectrometer, and glucose content was assayed via liquid chromatography.

A short description of data set [4]: Heating reaction test with saturated aqueous solution of phosphotungstic acid: distribution of phosphotungstic acid. Particulars: saturated aqueous solution of phosphotungstic acid triacontahydrate 30 g + glucose 5 g, heated. As to the method: as §2
Data set [5] is described as follows: Distribution ratio of phosphotungstic acid to organic solvent and water (powdery phosphotungstic acid). Particulars: ICP. As to the method:
The resultant was stirred and allowed to stand, followed by phase separation. Samples were obtained from each phase in an amount of 1 ml and the samples were dried using a centrifuge. The dried specimens were analyzed by the inductively coupled plasma (ICP) mass spectrometer. Water was dissolved in each phase in order to identify an aqueous phase.

Data set [6] in a line: Heating reaction test with phosphotungstic acid triacontahydrate: distribution of glucose. Particulars: phosphotungstic acid triacontahydrate 30 g + glucose 5 g, heated. As to the method:
as §1

A short description of data set [7]: Assay of solubility of phosphotungstic acid in organic solvent. As to conditions: in the listed organic solvent, room temperature. As to the method: Phosphotungstic acid was added to an organic solvent at room temperature. Phosphotungstic acid was continuously added until it was not able to dissolve therein, and solubility was determined based on the entire amount of phosphotungstic acid added.

Data set [8] in a line: Distribution ratio of phosphotungstic acid to organic solvent and water (saturated aqueous solution of phosphotungstic acid). As to conditions: ICP. As to the method:
The resultant was stirred and allowed to stand, followed by phase separation. Samples were obtained from each phase in an amount of 1 ml and the samples were dried using a centrifuge. The dried specimens were analyzed by the ICP mass spectrometer. Water was dissolved in each phase in order to identify an aqueous phase.

Data set [9] in a line: Assay of distribution ratio of glucose (saturated aqueous solution of phosphotungstic acid). As to the method: n-Butyl ethyl ether (26.67 ml) was added to a saturated aqueous solution containing 30 g of phosphotungstic acid. The resultant was stirred and allowed to stand, followed by phase separation. Glucose was continuously added until glucose was not able to dissolve in each phase. Solubility of glucose in n-butyl ethyl ether was determined based on the amount of glucose dissolved.

With `CCCCCCCCO` [1-Octanol], the “Distribution ratio of phosphotungstic acid (based on tungsten) (%)” value (from here on “Distribution ratio … (based on tungsten) (%)”) in [1] (First phase) is recorded as 96.9%; in data set [1] (Second phase (aqueous phase)) it was 3.1%; in data set [4] (First phase), 96.8%; in data set [4] (Second phase (aqueous phase)), 3.2%; in [5] (First phase (from top)) it was 97.7%; in data set [5] (Second phase (from top)), 2.3%. Further, the results for the “Distribution ratio … (based on tungsten) (%)” value in data set [8] (First phase (from top)), in data set [8] (Second phase (from top)) and in [8] (Third phase (from top)) were 1.3%, 97.3% and 1.4%, respectively. Moreover, the “Solubility of glucose (wt %)” value in [2] is given as less than 0.045 wt %. Further, the results for the “Distribution ratio of glucose (%)” value in [3] (First phase), in [3] (Second phase (aqueous phase)) and in [6] (Second phase (aqueous phase)) were 0%, 100% and 100%, respectively. Besides, in data set [7], the “Solubility of phosphotungstic acid (wt %)” value came out at 200 wt %.

`CCCCOCC` [n-Butyl ethyl ether]: the “Distribution ratio … (based on tungsten) (%)” value in data set [1] (First phase) was found to be 0.1%; in data set [1] (Second phase (aqueous phase)), 10.2%; in data set [1] (Third phase), 89.7%; in data set [4] (First phase), 0.1%; in [4] (Second phase (aqueous phase)) it was 8.9%; in data set [4] (Third phase) it was 91.0%. In addition, the “Distribution ratio … (based on tungsten) (%)” value in data set [5] (First phase (from top)) is reported as 0.1%; in data set [5] (Second phase (from top)), 2.9%; in data set [5] (Third phase (from top)) it was 97.0%; in [5] (Third phase (from top), listed as n-butyl ethyl ether), 97%; in data set [8] (First phase (from top)), 0.1%; in data set [8] (Second phase (from top)) it was 5.1%. For the same molecule, the “Distribution ratio … (based on tungsten) (%)” value in data set [8] (Third phase (from top)) is recorded as 94.8%. Also, in [2], the “Solubility of glucose (wt %)” value was less than 0.03 wt %. For the same molecule, the “Distribution ratio of glucose (%)” value in data set [3] (Second phase (aqueous phase)) worked out at 100%; in [3] (Third phase) it was 0%; in data set [6] (Second phase (aqueous phase)) it was 100%; in [6] (Third phase), 0%; in [9] (First phase) it was 0.1%; in data set [9] (Second phase (aqueous)), 97.7%. For the same molecule, the “Distribution ratio of glucose (%)” value in data set [9] (Third phase) is on record as 2.2%. The “Solubility of phosphotungstic acid (wt %)” value in [7] is 300 wt %.

Take `CCOCC` [Diethyl ether]: the “Distribution ratio … (based on tungsten) (%)” value in data set [1] (First phase) worked out at 0.03%; in data set [1] (Second phase (aqueous phase)), 1.7%; in data set [1] (Third phase), 98.3%; in data set [4] (First phase), 0.04%; in [4] (Second phase (aqueous phase)), 1.6%; in [4] (Third phase), 98.3%. Also, the “Distribution ratio … (based on tungsten) (%)” value in data set [5] (First phase (from top)) was determined as 0.01%; in data set [5] (Second phase (from top)), 99.4%; in data set [5] (Third phase (from top)) it was 0.6%; in data set [8] (First phase (from top)) it was 0.01%; in data set [8] (Second phase (from top)), 1.5%; in data set [8] (Third phase (from top)) it was 98.5%. In addition, the “Solubility of glucose (wt %)” value in [2] was less than 0.025 wt %. The “Distribution ratio of glucose (%)” value in data set [3] (First phase) worked out at 0%; in data set [3] (Second phase (aqueous phase)), 100%; in [3] (Third phase) it was 0%; in data set [6] (First phase) it was 0%; in [6] (Second phase (aqueous phase)), 100%; in data set [6] (Third phase) it was 0%. In addition, the “Solubility of phosphotungstic acid (wt %)” value in data set [7] is reported as greater than 229.3 wt %.

For `CCCCCCC(C)O` (stereo not shown) [2-Octanol], the “Distribution ratio … (based on tungsten) (%)” value in data set [1] (First phase) turned out to be 98.3%; in [1] (Second phase (aqueous phase)) it was 1.7%; in data set [4] (First phase), 98.1%; in data set [4] (Second phase (aqueous phase)), 1.9%; in data set [5] (First phase (from top)) it was 97.9%; in data set [5] (Second phase (from top)) it was 2.1%. The “Distribution ratio … (based on tungsten) (%)” value in data set [8] (First phase (from top)) was found to be 1.0%; in data set [8] (Second phase (from top)) it was 97.7%; in [8] (Third phase (from top)), 1.3%. For the same molecule, the “Solubility of glucose (wt %)” value in data set [2] is less than 0.043 wt %. Besides, the figures for the “Distribution ratio of glucose (%)” value in data set [3] (First phase), in data set [3] (Second phase (aqueous phase)) and in [6] (Second phase (aqueous phase)) were 0.8%, 99.2% and 100%, respectively. Further, the “Solubility of phosphotungstic acid (wt %)” value in [7] came to 200 wt %.
